# According to patent US10307410B2, “Mcl-1 modulating compounds for cancer treatment” (CENTRE REGIONAL DE LUTTE CONTRE LE CANCER FRANCOIS BACLESSE, priority 2014, dated 2019):
# System: IGROV1-R10 ovarian cancer cells
# Assay: Trypan blue exclusion assay
# Assay type: cell-based
# Conditions: IGROV1-R10, Pyridoclax associated to siXL1
compound,measurement,value
"Cc1cc(-c2ncc(-c3cccnc3)cc2/C=C/c2ccccc2)cnc1-c1cccnc1 [Pyridoclax, 5,6′-di(pyridin-3-yl)-5′-methyl-3-((E)-styryl)-2,3′-bipyridine]",number of viable cells,drastic decrease of the number of viable cells
